Like-named read-outs stand apart in the source and are kept apart here.
Experiments:
[1] = system: Hep G2 cells; experiment: Anticancer test; assay type: cell-based; settings: for IC50: read-out: IC50 (Hep G2)
[2] = DPPH antioxidant; settings: for IC50: read-out: IC50 (Antioxidant), DPPH assay
[3] = system: Caco-2 cells; experiment: Anticancer test; assay type: cell-based; settings: for IC50: read-out: IC50 (Caco-2 Cells)
[4] = biological target: COX-1 (Homo sapiens, UniProt P23219); experiment: biochemical
Chain of COX-1 (P23219 24-599): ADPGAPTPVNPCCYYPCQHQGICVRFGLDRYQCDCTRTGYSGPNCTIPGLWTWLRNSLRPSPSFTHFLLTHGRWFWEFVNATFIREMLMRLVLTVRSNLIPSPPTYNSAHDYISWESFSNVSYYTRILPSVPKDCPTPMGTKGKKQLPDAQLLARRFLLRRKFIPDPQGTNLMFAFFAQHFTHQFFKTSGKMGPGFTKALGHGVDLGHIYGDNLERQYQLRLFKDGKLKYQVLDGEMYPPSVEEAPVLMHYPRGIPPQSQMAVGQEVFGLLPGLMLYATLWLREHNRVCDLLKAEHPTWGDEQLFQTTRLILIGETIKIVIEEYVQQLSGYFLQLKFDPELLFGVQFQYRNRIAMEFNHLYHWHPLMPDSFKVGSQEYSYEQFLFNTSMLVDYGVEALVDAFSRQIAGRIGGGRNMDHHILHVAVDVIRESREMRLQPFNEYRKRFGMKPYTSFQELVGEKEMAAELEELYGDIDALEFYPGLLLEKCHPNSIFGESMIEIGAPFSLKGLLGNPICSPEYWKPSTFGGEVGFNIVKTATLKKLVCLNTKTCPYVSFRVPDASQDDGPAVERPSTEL

[5] = biological target: T1, COX-2 (Homo sapiens, UniProt P35354); experiment: biochemical; settings: for COX-2 selectivity: selectivity index = IC50 COX-1 / IC50 COX-2
T1 sequence (P35354 18-604): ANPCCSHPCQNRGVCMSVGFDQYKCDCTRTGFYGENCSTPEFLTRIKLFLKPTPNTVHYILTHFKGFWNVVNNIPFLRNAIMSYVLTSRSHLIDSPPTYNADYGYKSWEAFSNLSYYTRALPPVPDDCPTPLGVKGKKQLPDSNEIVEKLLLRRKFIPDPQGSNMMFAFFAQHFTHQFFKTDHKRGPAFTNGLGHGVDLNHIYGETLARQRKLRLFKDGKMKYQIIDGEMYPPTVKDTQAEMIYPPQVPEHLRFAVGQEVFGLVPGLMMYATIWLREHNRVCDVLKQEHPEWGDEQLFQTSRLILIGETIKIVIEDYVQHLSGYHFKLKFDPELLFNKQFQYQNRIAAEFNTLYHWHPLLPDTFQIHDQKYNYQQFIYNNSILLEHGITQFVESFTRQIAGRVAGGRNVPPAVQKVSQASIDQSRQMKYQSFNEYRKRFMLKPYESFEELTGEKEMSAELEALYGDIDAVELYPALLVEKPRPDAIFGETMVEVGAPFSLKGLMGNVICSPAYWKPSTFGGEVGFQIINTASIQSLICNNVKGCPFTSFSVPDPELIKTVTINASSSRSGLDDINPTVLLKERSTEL

[6] = system: HeLa cells; experiment: Anticancer test; assay type: cell-based; settings: for IC50: read-out: IC50 (Hela Cells)
[7] = cited from earlier work
[8] = cited from earlier work; remark: listed apart in the source
[9] = Hep G2 cells, MTS, 48 h, concentration range 100-20,000 nM
[10] = Caco-2 cells, MTS, 48 h, concentration range 100-20,000 nM
[11] = read-out: COX-1 IC50, human COX-1, ELISA kit
[12] = read-out: COX-2 IC50, human COX-2, ELISA kit

Compound	percentage inhibition of DPPH ([2]; conc 1 μg/mL)	percentage inhibition of DPPH ([2]; conc 2 μg/mL)	percentage inhibition of DPPH ([2]; conc 3 μg/mL)	percentage inhibition of DPPH ([2]; conc 5 μg/mL)	percentage inhibition of DPPH ([2]; conc 7 μg/mL)	percentage inhibition of DPPH ([2]; conc 10 μg/mL)	percentage inhibition of DPPH ([2]; conc 20 μg/mL)	percentage inhibition of DPPH ([2]; conc 30 μg/mL)	percentage inhibition of DPPH ([2]; conc 50 μg/mL)	COX-2 selectivity [5]	IC50 [4]	IC50 [5]	also measured
9-Phenyl-9H-thioxanthen-9-ol [Compound 3]	0.14 ± 0.02%	0.15 ± 0.01%	0.15 ± 0.03%	0.29 ± 0.01%	18.20 ± 1.40%	18.00 ± 2.37%	15.60 ± 2.01%	19.90 ± 1.0%	20.00 ± 3.12%	1.67			IC50 [1, 9]: 0.438 ± 0.033 µM; IC50 [3, 10]: 0.0096 ± 0.0011 µM; IC50 [4, 11]: 0.0128 ± 0.00063 µM; IC50 [5, 12]: 0.00769 ± 0.00055 µM
9-Phenyl-9H-xanthen-9-ol [Compound 4]	10 ± 0.01%	16.0 ± 0.02%	27.0 ± 0.01%	33.0 ± 1.21%	33.0 ± 2.13%	35.0 ± 2.31%	35.0 ± 3.31%	39.0 ± 5.51%	39.4 ± 2.44%				inhibition against Hep G2 cells ([1]; at 0.2 μM): 100%; IC50 [1, 9]: 0.4 ± 0.056 µM; IC50 [2]: 15.4 ± 6 µM; inhibition against HeLa cells ([6]; at 0.2 μM): 98%; percentage inhibition against Caco-2 cells ([3]; at 0.2 μM): 98%; IC50 [3, 10]: 0.0246 ± 0.008 µM; IC50 [4, 11]: 0.00652 ± 0.00085 µM; IC50 [5, 12]: 0.014 ± 0.0017 µM
OC1(Cc2ccccc2)c2ccccc2Oc2ccccc21 [Compound 1, 9-Benzyl-9H-xanthen-9-ol]	0.31 ± 0.02%	0.36 ± 0.02%	0.36 ± 0.01%	0.31 ± 0.01%	36.40 ± 4.11%	36.40 ± 3.31%	40.20 ± 5.21%	35.50 ± 1.01%	35.10 ± 3.31%				IC50 ([6]; Homo sapiens, HeLa, 48 h): 0.213 µM; inhibition at 0.2 µM ([6]; Homo sapiens, HeLa, read-out: inhibition against HeLa cells): 96%; inhibition at 0.2 µM ([3]; Homo sapiens, Caco-2, read-out: percentage inhibition against Caco-2 cells): 96%
OC1(Cc2ccccc2)c2ccccc2Sc2ccccc21 [Compound 2, 9-Benzyl-9H-thioxanthen-9-ol]	0.26 ± 0.01%	0.26 ± 0.03%	0.33 ± 0.04%	0.33 ± 0.01%	26.00 ± 7.20%	27.00 ± 1.03%	28.00 ± 2.14%	29.00 ± 1.15%	32.00 ± 3.75%	0.78	0.00563 ± 0.00074 µM	0.0072 ± 0.00058 µM	IC50 ([1]; Homo sapiens, HepG2, 48 h): 0.161 ± 0.041 µM; inhibition at 0.2 µM ([1]; Homo sapiens, HepG2, read-out: inhibition against Hep G2 cells): 100%
N[C@@H](CSC1(Cc2ccccc2)c2ccccc2Oc2ccccc21)C(=O)O [Compound 5, S-(9-benzyl-9H-xanthen-9-yl)-L-cysteine]	5.0 ± 0.01%	6.0 ± 0.02%	7.0 ± 0.01%	7.0 ± 0.51%	7.0 ± 0.67%	7.0 ± 0.35%	11.4 ± 1.01%	11.4 ± 2.10%	12.0 ± 1.33%				
N[C@@H](CSC1(c2ccccc2)c2ccccc2Oc2ccccc21)C(=O)O [Compound 6, S-(9-phenyl-9H-xanthen-9-yl)-L-cysteine]	18.0 ± 1.02%	18.0 ± 2.03%	22.0 ± 1.01%	28.0 ± 0.01%	28.0 ± 0.01%	30.0 ± 0.01%	30.0 ± 0.01%	30.0 ± 0.01%	30.0 ± 0.01%	0.33	0.0424 ± 0.00058 µM	0.13 ± 0.00171 µM	IC50 (Hep G2) [1, 9]: did not exhibit any inhibition
N[C@@H](CSC1(c2ccccc2)c2ccccc2Sc2ccccc21)C(=O)O [Compound 7, S-(9-phenyl-9H-thioxanthen-9-yl)-L-cysteine]	22.0 ± 3.31%	22.0 ± 3.11%	22.0 ± 2.22%	29.0 ± 4.22%	22.0 ± 1.22%	26.0 ± 3.44%	23.0 ± 1.11%	23.0 ± 1.21%	23.0 ± 3.10%		0.0167 ± 0.00084 µM	0.00437 ± 0.00078 µM	IC50 (Hep G2) [1, 9]: did not exhibit any inhibition; IC50 (Hela Cells) ([6]; HeLa cells, MTS, 48 h, concentration range 100-20,000 nM): no activity; COX-2 selectivity ([5]; listed as comp (7)): 3.78
N[C@@H](CSC(c1ccccc1)(c1ccccc1)c1ccccc1)C(=O)O [STLC, S-trityl-L-cysteine]													water solubility [7]: poor; permeability [8]: poor
Cc1c(C)c2c(c(C)c1O)CCC(C)(C(=O)O)O2 (stereo not drawn) [Trolox, reference compound]	37 ± 2.21%	54 ± 3.42%	81 ± 4.25%	86 ± 5.33%	91 ± 7.52%	92 ± 10.71%	93 ± 13.90%	94 ± 10.89%	94.5 ± 12.64%				IC50 [2]: 6.07 ± 0.8 µM
COc1cccc2c1C(=O)c1c(O)c3c(c(O)c1C2=O)C[C@@](O)(C(=O)CO)C[C@@H]3O[C@H]1C[C@H](N)[C@H](O)[C@H](C)O1 [doxorubicin, reference compound]													IC50 ([1]; Homo sapiens, HepG2, 48 h): 1.06 ± 0.043 µM; IC50 ([6]; Homo sapiens, HeLa, 48 h): 0.11 ± 0.015 µM; IC50 ([3]; Homo sapiens, Caco-2, 48 h): 0.497 ± 0.00036 µM

— PMC10586285 (ACS Omega, 2023)
